{"source": "patent US9687845B2", "about": "“Self-loading microfluidic device and methods of use” (Wisconsin Alumni Research Foundation, priority 2011, dated 2017)", "key": {"[1]": {"tested_on": "kanamycin-resistant strain of E. coli MG1655", "assay": "Susceptibility to multiple antibiotics on a single microfluidic device using breakpoint values", "type": "cell-based", "conditions": "18 h; for effect on growth of the strain: vancomycin 2, 4, 8 μg/mL, tetracycline 0.5, 1, 2 μg/mL, kanamycin 1, 2, 4 μg/mL", "from_the_text": "In this Example, a single microfluidic device was used to simultaneously test the susceptibility of the kanamycin-resistant strain of E. coli MG1655 described above to multiple antibiotics using breakpoint values.\nIn clinical microbiology, a strain is classified as susceptible, intermediate, or resistant based on the relationship of the MIC of an antibiotic to specified ‘breakpoint’ values. Breakpoint values are set by organizations, such as the CLSI, and take into consideration MIC values of wild type strains, pharmacokinetic/pharmacodynamic data, and clinical outcomes. Breakpoint values are available for specific clinically relevant pairings of bacterial species and antibiotics and enable clinical decisions without knowing the exact MIC value.\nSpecifically, vancomycin, tetracycline, and kanamycin were added to the reaction wells of a single device. The most common breakpoints for vancomycin (susceptible <2 μg/mL, resistant >2 μg/mL), tetracycline (susceptible <1 μg/mL, intermediate=2 μg/mL, resistant >2 μg/mL), and gentamicin (susceptible <2 μg/mL, intermediate=4 μg/mL, resistant >4 μg/mL) were used. As there are no published breakpoints available for kanamycin, the breakpoint values for the structurally related aminoglycoside, gentamicin, against aerobic bacteria was used. A microfluidic device with ten chambers was prepared as described in Example 1 above. The ten chambers were divided into three chambers for each antibiotic vancomycin (2, 4, 8 μg/mL), tetracycline (0.5, 1, 2 μg/mL), and kanamycin (1, 2, 4 μg/mL) and one chamber for a control containing no antibiotic."}, "E. faecalis (1131) [2]": {"tested_on": "E. faecalis (1131)", "assay": "Off-chip MIC, broth dilution method according to CLSI protocols", "type": "cell-based", "design": "unit not given beside the values", "conditions": "CAMHB, 20 h at 35° C. (vancomycin 24 h)", "description": "(§1) Off-chip MIC assays using the broth dilution method according to CLSI protocols were performed as control experiments and to validate experimental data obtained with the microfluidic device."}, "P. mirabilis (HI4320) [3]": {"tested_on": "P. mirabilis (HI4320)", "assay": "Off-chip MIC, broth dilution method according to CLSI protocols", "type": "cell-based", "design": "unit not given beside the values", "conditions": "CAMHB, 20 h at 35° C.", "description": "as §1"}, "[4]": {"tested_on": "kanamycin-resistant E. coli strain (from MG1655)", "assay": "microbe, parasite or virus in culture", "conditions": "Escherichia coli, MG1655, read-out: MIC of the resistant strain, control broth dilution", "protocol": "A 1:10 dilution series of the stock solutions in cation-adjusted Mueller-Hinton broth (CAMHB) was prepared and added to CAMBH (pH 7.3) to create a two-fold series dilution in which the total volume was 1 mL. Cell solutions of E. faecalis (1131), P. mirabilis (HI4320), K. pneumoniae, and E. coli (MG1655) were prepared in 13×100 mm tubes by adjusting the concentration of cells in overnight cultures to match the turbidity of a 0.5 McFarland standard (˜10^8 CFU/mL) using CAMHB. The solutions were diluted 100-fold in CAMHB and 1 mL of the suspension was added to 1 mL of antibiotic solution—prepared as described above—to yield a final cell concentration of ˜5×10^5 CFU/mL. The cultures were incubated for 20 h in a humidified incubator at 35° C. (no shaking) with the exception of experiments with vancomycin and E. faecalis, which were incubated for 24 h according to CLSI protocols. The MIC was determined as the lowest concentration of antibiotic at which no growth was visible after incubation.\nThus, the MIC of the kanamycin-resistant E. coli strain and the susceptible strain was determinable by visually identifying the chamber containing the lowest concentration of kanamycin in which the pH indicator remained red."}, "[5]": {"tested_on": "kanamycin-resistant E. coli strain (from MG1655)", "assay": "microbe, parasite or virus in culture", "conditions": "Escherichia coli, MG1655, 18 h, read-out: MIC of the resistant strain", "protocol": "Specifically, 100 μL of an overnight culture of E. coli MG1655 were plated on LB agar plates supplemented with 16 μg/mL kanamycin; the antibiotic concentration was ˜2× the MIC of kanamycin measured against E. coli MG1655. […] One of these colonies was characterized for its sensitivity to kanamycin in the microfluidic device. The kanamycin-resistant strain was compared to the wild type parent strain.\nThe devices were assembled and placed under vacuum for degassing. After the devices were removed from the vacuum, an aliquot (20 μL) of a suspension of cells of the resistant strain was introduced into the inlet port of one device and an aliquot (20 μL) of a suspension of cells of the wild type strain was introduced into the inlet port of the second device. Degas-driven flow filled and isolated the samples in the chambers. The devices were incubated for 18 h at 35° C. in a humidified incubator.\nTo eliminate external equipment needed for interpreting the test results, a pH sensor was incorporated to indicate cell growth. Specifically, the pH indicator phenol red (0.05% w/v) and glucose (1% w/v) were added to CAMHB media and adjusted the pH to 8.2. Phenol red was selected as it produces a distinct color change close to neutral pH and is not absorbed by PDMS. At the initial pH of the nutrient media, pH 8.2, phenol red appears bright red. […]"}, "K. pneumoniae [6]": {"tested_on": "K. pneumoniae", "assay": "Off-chip MIC, broth dilution method according to CLSI protocols", "type": "cell-based", "conditions": "CAMHB, 20 h at 35° C.", "description": "as §1"}, "E. faecalis (1131) [7]": {"tested_on": "E. faecalis (1131)", "assay": "MIC measurement using the self-loading microfluidic device", "type": "cell-based", "conditions": "18 h at 35° C., CAMBH pH 8.2 with 1% glucose and 0.05% phenol red, dilution series 0.5-1024 μg/mL", "description": "(§2) Minor adjustments were made to procedures mimicking the CLSI guidelines to perform MIC measurements using microfluidic devices prepared as described above. Antibiotic stock solutions (10 mg/mL in sterile deionized water) of vancomycin hydrochloride, tetracycline hydrochloride, and kanamycin monosulfate were used to prepare a 1:10 dilution series. Appropriate amounts of these dilutions were added to sterile deionized water to create a two-fold dilution series that varied from 0.5-1024 μg/mL. Antibiotic solution (2.94 μL) was added to each chamber with the lowest antibiotic concentration located closest to the inlet port and the highest antibiotic concentration located in the chamber closest to the vacuum well. After antibiotic loading, the device was placed in a laminar flow hood to evaporate the liquid. After the liquid was evaporated, the device was assembled by placing the layer of PDMS forming the channel section over the chamber layer containing the dried antibiotic such that the channels connected the chambers. The assembled device was then placed under vacuum.\n(§3) The standardized culture was then diluted 1:200 in CAMBH media, pH 8.2 supplemented with 1% glucose and 0.05% phenol red to provide a colorimetric change upon growth. The device was removed from the vacuum and 20 μL of cell suspension was pipetted onto the inlet port. […] Bacterial growth changed the pH of the liquid nutrient media containing the indicator phenol red, and produced a visible color change that was used to identify the cell growth in chambers."}, "P. mirabilis (HI4320) [8]": {"tested_on": "P. mirabilis (HI4320)", "assay": "MIC measurement using the self-loading microfluidic device", "type": "cell-based", "conditions": "18 h at 35° C., CAMBH pH 8.2 with 1% glucose and 0.05% phenol red, dilution series 0.5-1024 μg/mL", "description": "as §2, §3"}, "E. coli (MG1655) [9]": {"tested_on": "E. coli (MG1655)", "assay": "MIC measurement using the self-loading microfluidic device", "type": "cell-based", "conditions": "for MIC, Device: E. coli, 18 h at 35° C., CAMBH pH 8.2 with 1% glucose and 0.05% phenol red, dilution series 0.5-1024 μg/mL", "description": "as §2, §3"}, "K. pneumoniae [10]": {"tested_on": "K. pneumoniae", "assay": "MIC measurement using the self-loading microfluidic device", "type": "cell-based", "conditions": "18 h at 35° C., CAMBH pH 8.2 with 1% glucose and 0.05% phenol red, dilution series 0.5-1024 μg/mL", "description": "as §2, §3"}, "E. coli (MG1655) [11]": {"tested_on": "E. coli (MG1655)", "assay": "Off-chip MIC, broth dilution method according to CLSI protocols", "type": "cell-based", "design": "MIC, Broth: unit not given beside the values", "conditions": "for MIC, Broth: E. coli, broth dilution, CAMHB, 20 h at 35° C.", "description": "as §1"}}, "note": "Read-outs that look alike come from different tables or passages of the source.", "data": [{"smiles": "NC[C@H]1O[C@H](O[C@H]2[C@H](O)[C@@H](O[C@H]3O[C@H](CO)[C@@H](O)[C@H](N)[C@H]3O)[C@H](N)C[C@@H]2N)[C@H](O)[C@@H](O)[C@@H]1O", "note": "[kanamycin, kanamycin monosulfate]", "values": [{"measurement": "effect on growth of the strain", "setting": "[1]", "value": "did not have any effect"}, {"measurement": "MIC, Broth", "setting": "E. faecalis (1131) [2]", "value": 64}, {"measurement": "MIC, Broth", "setting": "P. mirabilis (HI4320) [3]", "value": 4}, {"measurement": "MIC", "setting": "[4]", "value": 128, "unit": "µg/mL"}, {"measurement": "MIC", "setting": "[5]", "value": 64, "unit": "µg/mL"}, {"measurement": "MIC, Broth", "setting": "K. pneumoniae [6]", "value": 2}, {"measurement": "MIC, Device", "setting": "E. faecalis (1131) [7]", "value": 128}, {"measurement": "MIC, Device", "setting": "P. mirabilis (HI4320) [8]", "value": 8}, {"measurement": "MIC, Device", "setting": "E. coli (MG1655) [9]", "value": 4}, {"measurement": "MIC", "setting": "E. coli (MG1655) [9]; Escherichia coli, MG1655, Example 5, 18 h at 35° C., phenol red indicator, read-out: MIC of the wild type strain", "value": 4, "unit": "µg/mL"}, {"measurement": "MIC, Device", "setting": "K. pneumoniae [10]", "value": 2}, {"measurement": "MIC, Broth", "setting": "E. coli (MG1655) [11]", "value": 8}, {"measurement": "MIC", "setting": "E. coli (MG1655) [11]; Escherichia coli, MG1655, Example 5, standard liquid broth dilution assay, read-out: MIC of the wild type strain, control broth dilution", "value": 8, "unit": "µg/mL"}]}, {"smiles": "CN(C)[C@@H]1C(O)=C(C(N)=O)C(=O)[C@@]2(O)C(O)=C3C(=O)c4c(O)cccc4[C@@](C)(O)[C@H]3C[C@@H]12.Cl", "note": "[tetracycline, tetracycline hydrochloride]", "values": [{"measurement": "effect on growth of the strain", "setting": "[1]", "value": "inhibited the growth"}, {"measurement": "phenotype of the strain by breakpoint values", "setting": "[1]; tetracycline breakpoints", "value": "intermediate (intermediate=2 μg/mL)"}, {"measurement": "MIC, Broth", "setting": "E. faecalis (1131) [2]", "value": 32}, {"measurement": "MIC, Broth", "setting": "P. mirabilis (HI4320) [3]", "value": 256}, {"measurement": "MIC, Broth", "setting": "K. pneumoniae [6]", "value": 8}, {"measurement": "MIC, Device", "setting": "E. faecalis (1131) [7]", "value": 64}, {"measurement": "MIC, Device", "setting": "P. mirabilis (HI4320) [8]", "value": 128}, {"measurement": "MIC, Device", "setting": "E. coli (MG1655) [9]", "value": 2}, {"measurement": "MIC, Device", "setting": "K. pneumoniae [10]", "value": 8}, {"measurement": "MIC, Broth", "setting": "E. coli (MG1655) [11]", "value": 1}]}]}
